Assay results published in patent publication US12264155B2, “Compounds, pharmaceutical compositions, and methods of preparing compounds and of their use as ATR kinase inhibitors” (Repare Therapeutics Inc., priority 2018, dated 2025).

Tested on: ATR kinase (CHK1 phosphorylation at Ser345) in HeLa S3 cells
Assay: ATR assay in HeLa S3 cells (CHK1 p-Ser345 AlphaScreen SureFire, gemcitabine); also: gemcitabine 1.5 µM
Assay type: cell-based
Settings: Homo sapiens, HeLa S3, HeLa S3 whole cell assay, 3.5 to 4 hours
Protocol: Media was then replaced by 20 μL per well Opti-MEM no phenol red and 5 μL of serial diluted compounds were added to the assay plate for a final DMSO concentration of 0.5%. […] The plate was incubated at 37° C., 1-5% CO2 for 3.5 to 4 hours.

Row | Structure (SMILES) | IC50 [nM]
1 | C[C@@H]1COCCN1c1cc(C2(O)CCN(c3ccc(C#N)cc3)CC2)c2cnn(-c3cc[nH]n3)c2n1 [Compound 95] | 2
2 | C[C@@H]1COCCN1c1cc(-c2ccccc2S(=O)(=O)NC2CC2)c2cnn(-c3cc[nH]n3)c2n1 [Compound 124] | 63
3 | C[C@@H]1COCCN1c1cc([C@]2(O)CC[C@H](c3ccccc3)CC2)c2cnn(-c3cc[nH]n3)c2n1 [Compound 97] | 0.9
4 | C[C@@H]1COCCN1c1cc(C2(O)CCN(c3ccc(F)cc3)CC2)c2cnn(-c3cc[nH]n3)c2n1 [Compound 116] | 1.2
5 | C[C@@H]1COCCN1c1cc(-c2cc(Cl)cnc2N)c2cnn(-c3cc[nH]n3)c2n1 [Compound 140] | 7.2
6 | C[C@@H]1COCCN1c1cc(C2(O)CCC(OC(F)(F)F)CC2)c2cnn(-c3ccn[nH]3)c2n1 (stereo partly shown) [Compound 133] | 1.5
7 | C[C@@H]1COCCN1c1cc(C2=C[C@H]3CC[C@@H](C2)O3)c2cnn(-c3cc[nH]n3)c2n1 [Compound 148] | 2.5
8 | C[C@@H]1COCCN1c1cc(C2(O)CCN(C(C)(C)C)CC2)c2cnn(-c3cc[nH]n3)c2n1 [Compound 109] | 17
9 | C[C@@H]1COCCN1c1cc(-c2cccc(C(F)(F)F)c2C(N)=O)c2cnn(-c3cc[nH]n3)c2n1 [Compound 131] | 1.8
10 | C[C@@H]1COCCN1c1cc(-c2ccc(C3CC3)nc2N)c2cnn(-c3cc[nH]n3)c2n1 [Compound 146] | 3.1
11 | C[C@@H]1COCCN1c1cc(C2(O)CCN(CC(F)F)CC2)c2cnn(-c3cc[nH]n3)c2n1 [Compound 108] | 1.3
12 | C[C@@H]1COCCN1c1cc(N2CCN(c3ccccn3)CC2)c2cnn(-c3cc[nH]n3)c2n1 [Compound 137] | 2.1
13 | C[C@@H]1COCCN1c1cc([C@]2(O)CCC[C@H](C(F)(F)F)C2)c2cnn(-c3cc[nH]n3)c2n1 [Compound 104] | 2.4
14 | C[C@@H]1COCCN1c1cc(C2(O)CCN(c3cccc(F)c3)CC2)c2cnn(-c3cc[nH]n3)c2n1 [Compound 93] | 0.5
15 | COCC1CCC(O)(c2cc(N3CCOC[C@H]3C)nc3c2cnn3-c2cc[nH]n2)CC1 (stereo partly shown) [Compound 102] | 0.9
16 | C[C@@H]1COCCN1c1cc(C2(O)CC(C)(C)N(C)C(C)(C)C2)c2cnn(-c3cc[nH]n3)c2n1 [Compound 119] | 14
17 | C[C@@H]1COCCN1c1cc([C@@]2(O)C[C@H]3CC[C@@H](C2)O3)c2cnn(-c3cc[nH]n3)c2n1 (stereo in doubt) [Compound 121] | 0.9
18 | C[C@@H]1COCCN1c1cc(-c2ccc(C(F)(F)F)nc2N)c2cnn(-c3cc[nH]n3)c2n1 [Compound 138] | 9.4
19 | C[C@@H]1COCCN1c1cc(-c2cccc(Cl)c2C(N)=O)c2cnn(-c3cc[nH]n3)c2n1 [Compound 130] | 13
20 | C[C@@H]1COCCN1c1cc([C@]2(O)CC[C@H](C(F)(F)F)CC2)c2cnn(-c3cc[nH]n3)c2n1 [Compound 114] | 0.8
21 | CC(C)N1CCC(O)(c2cc(N3CCOC[C@H]3C)nc3c2cnn3-c2cc[nH]n2)CC1 [Compound 118] | 6.4
22 | C[C@@H]1COCCN1c1cc(-c2ccc(F)cc2C(F)(F)F)c2cnn(-c3cc[nH]n3)c2n1 [Compound 142] | 3.6
23 | Cc1nc(C(N)=O)c(-c2cc(N3CCOC[C@H]3C)nc3c2cnn3-c2cc[nH]n2)s1 [Compound 127] | 7
24 | C[C@@H]1COCCN1c1cc(C2(O)CCCOCC2)c2cnn(-c3cc[nH]n3)c2n1 (stereo partly shown) [Compound 111] | 2.4
25 | C[C@@H]1COCCN1c1cc(C2(O)CCN(c3ncccc3C(F)(F)F)CC2)c2cnn(-c3cc[nH]n3)c2n1 [Compound 96] | 20
26 | C[C@@H]1COCCN1c1cc(C2(O)CCC3(CC2)COC3)c2cnn(-c3cc[nH]n3)c2n1 [Compound 105] | 1.1

Row | Structure (SMILES) | IC50 [nM]
27 | C[C@@H]1COCCN1c1cc(-c2cccnc2N)c2cnn(-c3cc[nH]n3)c2n1 [Compound 125, (R)-3-(6-(3-methylmorpholino)-1-(1H-pyrazol-3-yl)-1H-pyrazolo[3,4-b]pyridin-4-yl)pyridin-2-amine] | 11
28 | C[C@@H]1COCCN1c1cc(-c2ccccc2S(C)(=O)=O)c2c(=O)[nH]n(-c3ccn[nH]3)c2n1 [Compound 152] | 22
29 | C[C@@H]1COCCN1c1cc(C2(O)C[C@H]3CC[C@@H](C2)S3)c2cnn(-c3cc[nH]n3)c2n1 (stereo partly shown) [Compound 122] | 1.1
30 | C[C@@H]1COCCN1c1cc(C2(O)CCC3(CC3)CC2)c2cnn(-c3cc[nH]n3)c2n1 [Compound 123] | 0.9
31 | COc1ccc(-c2cc(N3CCOC[C@H]3C)nc3c2cnn3-c2cc[nH]n2)c(C(F)(F)F)c1 [Compound 143] | 7.2
32 | Cc1ccc(-c2cc(N3CCOC[C@H]3C)nc3c2cnn3-c2cc[nH]n2)c(N)n1 [Compound 139] | 4.2
33 | C[C@@H]1COCCN1c1cc(C2(O)CCN(CC(F)(F)F)CC2)c2cnn(-c3cc[nH]n3)c2n1 [Compound 120] | 1.2
34 | C[C@@H]1COCCN1c1cc([C@]2(O)CC[C@@]3(CCCO3)CC2)c2cnn(-c3cc[nH]n3)c2n1 [Compound 112] | 0.8
35 | C[C@@H]1COCCN1c1cc([C@]2(O)CC[C@]3(CCCO3)CC2)c2cnn(-c3cc[nH]n3)c2n1 [Compound 113] | 2.1
36 | C[C@@H]1COCCN1c1cc(-c2cccnc2C(F)(F)F)c2c(=O)[nH]n(-c3ccn[nH]3)c2n1 [Compound 151] | 9.1
37 | C[C@@H]1COCCN1c1cc(C2(O)CCOC3(CCC3)C2)c2cnn(-c3cc[nH]n3)c2n1 (stereo partly shown) [Compound 107] | 2
38 | C[C@@H]1COCCN1c1cc(C2(O)CCC(C#N)CC2)c2cnn(-c3cc[nH]n3)c2n1 (stereo partly shown) [Compound 103] | 1.7
39 | C[C@@H]1COCCN1c1cc(C2(O)CCC(C(C)(C)C)CC2)c2cnn(-c3ccn[nH]3)c2n1 (stereo partly shown) [Compound 132] | 1.9
40 | C[C@@H]1COCCN1c1cc([C@]2(O)CC[C@@](C)(C#N)CC2)c2cnn(-c3cc[nH]n3)c2n1 [Compound 106] | 3.3
41 | C[C@@H]1COCCN1c1cc(-c2cccnc2C(N)=O)c2cnn(-c3cc[nH]n3)c2n1 [Compound 129] | 11
42 | C[C@@H]1COCCN1c1nc2c(cnn2-c2cc[nH]n2)c(-c2ccccc2C(F)(F)F)c1Cl [Compound 149] | 27
43 | C[C@@H]1COCCN1c1cc(C2(O)CCN(c3ccc(Cl)cc3)CC2)c2cnn(-c3cc[nH]n3)c2n1 [Compound 94] | 1.9
44 | C[C@@H]1COCCN1c1cc(-c2ccc(F)cc2S(C)(=O)=O)c2cnn(-c3cc[nH]n3)c2n1 [Compound 145] | 3.8
45 | COC1CCC(O)(c2cc(N3CCOC[C@H]3C)nc3c2cnn3-c2cc[nH]n2)CC1 (stereo partly shown) [Compound 101] | 1
46 | C[C@@H]1COCCN1c1cc(-c2ccccc2C(F)(F)F)c2c(=O)[nH]n(-c3ccn[nH]3)c2n1 [Compound 150, 6-[(3R)-3-methylmorpholin-4-yl]-1-(1H-pyrazol-5-yl)-4-[2-(trifluoromethyl)phenyl]-2H-pyrazolo[3,4-b]pyridin-3-one] | 7.8
47 | C[C@@H]1COCCN1c1cc(-c2cccnc2C(F)(F)F)c2cnn(-c3cc[nH]n3)c2n1 [Compound 144] | 1.3
48 | C[C@@H]1COCCN1c1cc(N2CCCOCC2=O)c2cnn(-c3cc[nH]n3)c2n1 [Compound 136] | 46
49 | C[C@@H]1COCCN1c1cc(C2(O)C3CCC2CN(C)C3)c2cnn(-c3cc[nH]n3)c2n1 (stereo partly shown) [Compound 117] | 38
50 | C[C@@H]1COCCN1c1cc([C@]2(O)CC[C@@H](c3ccccc3)CC2)c2cnn(-c3cc[nH]n3)c2n1 [Compound 98] | 1.2
51 | C[C@@H]1COCCN1c1cc(-c2ccccc2C(C)(C)O)c2cnn(-c3cc[nH]n3)c2n1 [Compound 128] | 2.4
52 | C[C@@H]1COCCN1c1cc(C2(O)CCC3(CCOCC3)CC2)c2cnn(-c3cc[nH]n3)c2n1 [Compound 110] | 0.7
